Tested on: triple-negative breast cancer 4T1 cells
Assay: Antitumor effect of α-GalCer liposome against breast cancer by repetitive subcutaneous administration
Type: in vivo, BALB/c mouse
Conditions: s.c. left flank, 4 times every 5 days, α-GalCer 15 µg; n=2 shown
Procedure: The following liposome samples prepared using PBS in Example 1 were used. • (1-2) 50% α-GalCer / negatively charged PEG terminal -OH liposome, 100 nm • (1-11) 0% control / negatively charged PEG terminal -OH liposome, 100 nm The liposome samples were adjusted to a PEGylated liposome concentration of 1 mg/mL (in terms of total lipids), and used as administration samples. PBS was used for the adjustment of the PEGylated liposome concentration. The administration sample prepared from the aforementioned (1-2) was used as the α-GalCer liposome administration sample of the Example (αGal lipo), and the administration sample prepared from the aforementioned (1-11) was used as the control liposome administration sample (Ctrl lipo). In addition, a free GalCer sample (Free αGal) in which free α-GalCer not formulated into a liposome was suspended in PBS, and PBS, were each used as administration samples.
As breast cancer cells, triple-negative breast cancer 4T1 cells were used. 4T1 cells (5.0×10^5 to 1.0×10^6 cells/mouse) were subcutaneously inoculated into the vicinity of the second teat from the top of the left chest of a BALB/c mouse (5 weeks old, female, n=2). When the average tumor volume reached 40 to 100 mm^3, the mice were randomly divided into groups. Then, the administration sample was subcutaneously injected into the left flank of the mouse (Day 0). […]

CCCCCCCCCCCCCCCCCCCCCCCCCC(=O)N[C@@H](CO[C@H]1O[C@H](CO)[C@H](O)[C@H](O)[C@H]1O)[C@H](O)[C@H](O)CCCCCCCCCCCCCC [α-GalCer, (2S,3S,4R)-1-O-(α-D-galactopyranosyl)-2-hexacosanoylamino-1,3,4-octadecanetriol]
increase in tumor volume: suppressed
